Source: ChEMBL document CHEMBL1123223, “New effective gonadotropin releasing hormone antagonists with minimal potency for histamine release in vitro” (J Med Chem, 1986)
Converted amounts (≈) assume the structure as drawn.

Columns and labels:
[1] = species on record: Rattus norvegicus; experiment: GnRH antagonistic dose of compound for 8 rats ovulation out of total 10 using anti-ovulatory assay; assay type: functional
[2] = species on record: Rattus norvegicus; experiment: Compound was tested in vitro for its ability to inhibit histamine release from rat mast cells.; assay type: functional; settings: read-out: ED50 (the source's name)
[3] = species on record: Rattus norvegicus; experiment: GnRH antagonistic dose of compound for 11 rats ovulation out of total 15 using anti-ovulatory assay; assay type: functional
[4] = species on record: Rattus norvegicus; experiment: GnRH antagonistic dose of compound for 10 rats ovulation out of total 10 using anti-ovulatory assay; assay type: functional
[5] = species on record: Rattus norvegicus; experiment: Compound was evaluated for time course of action on LH secretion in the castrated male rat at a time interval of 43 hr at 125 microg; assay type: functional
[6] = species on record: Rattus norvegicus; experiment: Compound was evaluated for time course of action on LH secretion in the castrated male rat at a time interval of 0 hr at 125 microg; assay type: functional
[7] = species on record: Rattus norvegicus; experiment: Dissociation constant was determined in rat pituitary cells.; assay type: cell-based; settings: pituitary gland cell
[8] = species on record: Rattus norvegicus; experiment: Compound was evaluated for time course of action on LH secretion in the castrated male rat at a time interval of 19 hr at 125 microg; assay type: functional
[9] = species on record: Rattus norvegicus; experiment: Compound was evaluated for time course of action on LH secretion in the castrated male rat at a time interval of 73 hr at 125 microg; assay type: functional
[10] = species on record: Rattus norvegicus; experiment: Compound was evaluated for time course of action on LH secretion in the castrated male rat at a time interval of 49 hr at 125 microg; assay type: functional
[11] = species on record: Rattus norvegicus; experiment: Compound was evaluated for time course of action on LH secretion in the castrated male rat at a time interval of 1 hr at 125 microg; assay type: functional
[12] = species on record: Rattus norvegicus; experiment: GnRH antagonistic dose of compound for 8 rats ovulation out of total 16 using anti-ovulatory assay in experiment 1; assay type: functional
[13] = species on record: Rattus norvegicus; experiment: GnRH antagonistic dose of compound for 0 rats ovulation out of total 10 using anti-ovulatory assay in experiment 1; assay type: functional
[14] = species on record: Rattus norvegicus; experiment: Compound was evaluated for time course of action on LH secretion in the castrated male rat at a time interval of 67 hr at 125 microg; assay type: functional
[15] = target: T1, Gonadotropin-releasing hormone receptor (Rattus norvegicus) (UniProt P30969); experiment: Inhibition of GnRH-mediated LH secretion by cultured pituitary cells; assay type: functional, cell-based; settings: Pituitary gland cell
T1 sequence (whole entry): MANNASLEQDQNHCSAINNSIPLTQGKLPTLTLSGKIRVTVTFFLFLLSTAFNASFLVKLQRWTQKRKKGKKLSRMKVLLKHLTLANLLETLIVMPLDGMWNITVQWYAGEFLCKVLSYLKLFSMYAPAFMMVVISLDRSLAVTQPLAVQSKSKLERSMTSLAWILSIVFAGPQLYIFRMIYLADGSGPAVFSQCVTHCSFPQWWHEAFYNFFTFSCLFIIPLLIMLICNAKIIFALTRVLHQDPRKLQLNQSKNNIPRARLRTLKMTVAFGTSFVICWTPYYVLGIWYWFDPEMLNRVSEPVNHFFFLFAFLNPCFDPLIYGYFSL

[16] = species on record: Rattus norvegicus; experiment: GnRH antagonistic dose of compound for 0 rats ovulation out of total 10 using anti-ovulatory assay in experiment 2; assay type: functional
[17] = species on record: Rattus norvegicus; experiment: GnRH antagonistic dose of compound for 1 rats ovulation out of total 10 using anti-ovulatory assay in experiment 1; assay type: functional
[18] = species on record: Rattus norvegicus; experiment: GnRH antagonistic dose of compound for 7 rats ovulation out of total 20 using anti-ovulatory assay; assay type: functional

**Q.** How did the ED100 [1] turn out when `CC(=O)N[C@H](Cc1ccc2ccccc2c1)C(=O)N[C@H](Cc1ccc(Cl)cc1)C(=O)N[C@H](Cc1cccnc1)C(=O)N[C@@H](CO)C(=O)N[C@@H](CCCN=C(N)N)C(=O)N[C@H](Cc1cn(Cc2ccccc2)cn1)C(=O)N[C@@H](CC(C)C)C(=O)N[C@@H](CCCN=C(N)N)C(=O)N1CCC[C@H]1C(=O)N[C@H](C)C(N)=O` was run?
**A.** 0.5 µg/kg

**Q.** What about the EC50 [2] of the same compound?
**A.** 4.4 µg/mL (≈ 2.94 µM)

**Q.** How did the ED100 [3] turn out when `CC(=O)N[C@H](Cc1ccc2ccccc2c1)C(=O)N[C@H](Cc1ccc(Cl)cc1)C(=O)N[C@H](Cc1cccnc1)C(=O)N[C@@H](CO)C(=O)N[C@@H](CCCN=C(N)N)C(=O)N[C@H](Cc1ccc(O)cc1)C(=O)N[C@@H](CC(C)C)C(=O)N[C@@H](CCCN=C(N)N)C(=O)N1CCC[C@H]1C(=O)N[C@H](C)C(N)=O` was run?
**A.** 0.5 µg/kg

**Q.** And the EC50 [2]?
**A.** 3.7 µg/mL (≈ 2.59 µM)

**Q.** With `COc1ccc(C(=O)CC[C@@H](NC(=O)[C@H](Cc2ccc(O)cc2)NC(=O)[C@H](CO)NC(=O)[C@@H](Cc2cccnc2)NC(=O)[C@@H](Cc2ccc(Cl)cc2)NC(=O)[C@H]2CCCN2C(C)=O)C(=O)N(C)[C@@H](CC(C)C)C(=O)N[C@@H](CCCN=C(N)N)C(=O)N2CCC[C@H]2C(=O)N[C@H](C)C(=O)O)cc1` as the compound, how does the EC50 [2] read?
**A.** 30.3 µg/mL (≈ 21.5 µM)

**Q.** And the ED100 [4]?
**A.** 5 µg/kg

**Q.** For `COc1ccc(C(=O)CC[C@@H](NC(=O)[C@H](CCCN=C(N)N)NC(=O)[C@H](CO)NC(=O)[C@@H](Cc2cccnc2)NC(=O)[C@@H](Cc2ccc(Cl)cc2)NC(=O)[C@@H](Cc2ccc3ccccc3c2)NC(C)=O)C(=O)N[C@@H](CC(C)C)C(=O)N[C@@H](CCCN=C(N)N)C(=O)N2CCC[C@H]2C(=O)N[C@H](C)C(=O)O)cc1`, which LH level [5] is on record?
**A.** 3.27 ng/mL

**Q.** What about the LH level [6] of the same compound?
**A.** 13.38 ng/mL

**Q.** And the Kd [7]?
**A.** 670 pM

**Q.** And the LH level [8]?
**A.** 3.68 ng/mL

**Q.** And the LH level [9]?
**A.** 5.06 ng/mL

**Q.** And the LH level [10]?
**A.** 2.94 ng/mL

**Q.** And the LH level [11]?
**A.** 6.31 ng/mL

**Q.** What about the EC50 [2] of the same compound?
**A.** 1.6 µg/mL (≈ 1.08 µM)

**Q.** What about the ED100 [12] of the same compound?
**A.** 0.5 µg/kg

**Q.** What about the ED100 [13] of the same compound?
**A.** 1.5 µg/kg

**Q.** And the LH level [14]?
**A.** 3.67 ng/mL

**Q.** And the Relative potency [15]?
**A.** 1.01

**Q.** What does the source list for `COc1ccc(C(=O)CC[C@@H](NC(=O)[C@H](CCCN=C(N)N)NC(=O)[C@H](CO)NC(=O)[C@@H](Cc2cccnc2)NC(=O)[C@@H](Cc2ccc(Cl)cc2)NC(=O)[C@@H](Cc2ccc3ccccc3c2)NC(C)=O)C(=O)N[C@@H](CC(C)C)C(=O)N[C@@H](CCCN=C(N)N)C(=O)N2CCC[C@H]2C(=O)NCC(=O)O)cc1`?
**A.** Kd [7]: 600 pM; ED100 [16]: 2.5 µg/kg; EC50 [2]: 3.2 µg/mL (≈ 2.17 µM); ED100 [17]: 1 µg/kg

**Q.** `CC(=O)N[C@H](Cc1ccc2ccccc2c1)C(=O)N[C@H](Cc1ccc(F)cc1)C(=O)N[C@H](Cc1c[nH]c2ccccc12)C(=O)N[C@@H](CO)C(=O)N[C@@H](Cc1ccc(O)cc1)C(=O)N[C@H](CCCN=C(N)N)C(=O)N[C@@H](CC(C)C)C(=O)N[C@@H](CCCN=C(N)N)C(=O)N1CCC[C@H]1C(=O)NCC(=O)O` was tested. Which EC50 [2] did it give?
**A.** 0.17 µg/mL (≈ 0.118 µM)

**Q.** With `CC(=O)N1CCC[C@@H]1C(=O)N[C@H](Cc1ccc(F)cc1)C(=O)N[C@H](Cc1c[nH]c2ccccc12)C(=O)N[C@@H](CO)C(=O)N[C@@H](Cc1ccc(O)cc1)C(=O)N[C@H](Cc1c[nH]c2ccccc12)C(=O)N[C@@H](CC(C)C)C(=O)N[C@@H](CCCN=C(N)N)C(=O)N1CCC[C@H]1C(=O)NCC(=O)O` as the compound, how does the EC50 [2] read?
**A.** 39 µg/mL (≈ 28.5 µM)

**Q.** Which results are given for `CC(=O)N[C@H](Cc1ccc2ccccc2c1)C(=O)N[C@H](Cc1ccc(Cl)cc1)C(=O)N[C@H](Cc1cccnc1)C(=O)N[C@@H](CO)C(=O)N[C@@H](CCCN=C(N)N)C(=O)N[C@H](Cc1c[nH]c2cc([N+](=O)[O-])ccc12)C(=O)N[C@@H](CC(C)C)C(=O)N[C@@H](CCCN=C(N)N)C(=O)N1CCC[C@H]1C(=O)N[C@H](C)C(=O)O`?
**A.** Kd [7]: 630 pM; EC50 [2]: 2.7 µg/mL (≈ 1.8 µM); ED100 [18]: 0.5 µg/kg; Relative potency [15]: 1.16
